Values of other authors as cited in patent publication US20120035233A1 (priority 2009, published 2012).
Where two headings read alike, the source gives them in different places.

For `Clc1ccc(COC(Cn2ccnc2)c2ccc(Cl)cc2Cl)c(Cl)c1` (centres unmarked) [Miconazole Nitrate, 1-[2-(2,4-Dichlorophenyl)-2-[(2,4-dichlorophenyl)methoxy]ethyl]-1H-imidazole], the solubility (chloroform) is given as “slightly soluble”, the solubility (ethanol (95%)) is given as “slightly soluble” and the solubility (ether) is given as “very slightly soluble”. The solubility (methanol) was “freely soluble” and the solubility (water) was “very slightly soluble”.
